According to patent US8309537B2, “Compositions and methods for treating colitis” (Aerpio Therapeutics Inc., priority 2009, dated 2012):
Structures can show the parent of a compound that is named as a salt. Where two headings read alike, the source gives them in different places.

How the values were obtained:
[1] = test system: Mouse Colon 26 tumor cells; test: Xenograft model: Mouse Colon 26 carcinoma in nude mice; format: in vivo; conditions: Group 1: 5-FU 10 mg/kg IV once daily for five days alone; Day 27
Experimental: Xenograft Model: Mouse Colon 26 Carcinoma
Nude mice (Harlan Sprague Dawley, Inc., Indianapolis Ind.) were inoculated subcutaneously in the right flank with 0.1 mL of a 0.9% NaCl mixture containing a suspension of Mouse Colon 26 tumor cells (approx. 1×10^6 cells/mouse). Nine days following inoculation, the resulting tumors were measured using vernier calipers and tumor weight was calculated using the formula:
[formula] wherein the width can be taken as the smallest diameter and the length the largest diameter of the tumor. Twenty-four mice having tumors in the range of 75-144 mg were then selected. The mice were randomized into three groups of eight mice each. The body weight of each animal was at taken when the mice were pair-matched on day one and recorded. Body weights were then taken twice weekly thereafter in conjunction with tumor measurements. See Britten C. D. et al., “Enhanced antitumor activity of 6-hydroxymethyl-acylfulvene in combination with irinotecan and 5-fluorouracil in the HT29 human colon tumor xenograft model.” Cancer Res 1999; 59:1049-53, incorporated by reference herein in its entirety.
Beginning on Day 1, 5-fluorouracil (5-FU) was administered intravenously once daily for five days to each animal (Groups 1-3). […] The actual weight of each tumor was recorded.

[2] = Solubility of salts in distilled deionized water (HPLC); format: physicochemical
Experimental: The formulator can determine the solubility of the pharmaceutically acceptable salts of the disclosed inhibitors by any method desirable. The following is a non-limiting example of a procedure for evaluating the solubility of a salt of a disclosed inhibitor. A suspension of tert-butyl-{[1-(4-chlorobenzyl)-3-hydroxy-2-oxo-1,2-dihydropyridin-4-yl]methyl}-piperazine-1-carboxylate methanesulfonate (26.6 mg) in distilled deionized water (3.0 mL) is sonicated for 20 min with water bath temperature under 25° C. The suspension is filtered to remove any insoluble salt. The clear filtrate solution (200 μL) is diluted with distilled deionized water (800 μL) and subjected to HPLC analysis. The following are results for the pharmaceutically acceptable salts outlined in Table VII above.

Row | SMILES | Solubility [2] | other results
1 | O=c1[nH]cc(F)c(=O)[nH]1 [Compound 5-FU, 5-fluorouracil] |  | Tumor Wgt. [1]: 1926.9 ± 284.9 mg
2 | CC(C)(C)OC(=O)N1CCN(Cc2ccn(Cc3ccc(Cl)cc3)c(=O)c2O)CC1 [Compound A41, tert-Butyl-{[1-(4-chlorobenzyl)-3-hydroxy-2-oxo-1,2-dihydropyridin-4-yl]methyl}piperazine-1-carboxylate] |  | Solubility ([2]; distilled deionized water, sonicated 20 min, bath under 25° C., filtrate by HPLC, listed as Free base): ~1 µg/mL
3 | CC(C)(C)OC(=O)N1CCN(Cc2ccn(Cc3ccc(Cl)cc3)c(=O)c2O)CC1 [hydrochloride, tert-butyl-{[1-(4-chlorobenzyl)-3-hydroxy-2-oxo-1,2-dihydropyridin-4-yl]methyl}-piperazine-1-carboxylate] | 5900 µg/mL | 
4 | CC(C)(C)OC(=O)N1CCN(Cc2ccn(Cc3ccc(Cl)cc3)c(=O)c2O)CC1 [p-toluenesulfonate, tert-butyl-{[1-(4-chlorobenzyl)-3-hydroxy-2-oxo-1,2-dihydropyridin-4-yl]methyl}-piperazine-1-carboxylate] | 2300 µg/mL | 
